{"source": "paper PMC10460728", "about": "(Journal of Pharmacokinetics and Pharmacodynamics, 2023)", "key": {"CYP1A2": {"test_system": "CYP1A2", "assay": "CYP1A2 mRNA induction in cultured human hepatocytes", "quoted_text": "(§1) Hepatocytes were cultured according to previously described methods [8]. […] Single-stranded cDNA was prepared from RNA with the RT Master Mix using the AB 7900HT Fast Real Time PCR System thermocycling program. Quantitative RT-PCR was carried out in triplicate. Relative quantification measures the change in mRNA expression in a test sample relative to that in a control sample (e.g., DMSO). This method assumes that the efficiency of the target amplification and the efficiency of the endogenous control amplification are approximately equal.\n(§2) The maximal fold induction (Indmax) and half concentration to reach Indmax (IndC50) were determined based on the following equation: Foldinduction=1+Indmax-1×Ct/IndC50+Ct where Ct is the test drug concentration."}, "CYP3A4 [1]": {"test_system": "CYP3A4", "quoted_text": "as §1, §2"}, "CYP2B6": {"test_system": "CYP2B6", "assay": "CYP2B6 mRNA induction in cultured human hepatocytes"}, "CYP2C19": {"test_system": "CYP2C19", "assay": "CYP2C19 mRNA induction in cultured human hepatocytes", "quoted_text": "as §1, §2"}, "P-gp (human MDR1)": {"molecular_target": "P-gp (human MDR1) (Homo sapiens, UniProt P08183)", "sequence (P08183 whole entry)": "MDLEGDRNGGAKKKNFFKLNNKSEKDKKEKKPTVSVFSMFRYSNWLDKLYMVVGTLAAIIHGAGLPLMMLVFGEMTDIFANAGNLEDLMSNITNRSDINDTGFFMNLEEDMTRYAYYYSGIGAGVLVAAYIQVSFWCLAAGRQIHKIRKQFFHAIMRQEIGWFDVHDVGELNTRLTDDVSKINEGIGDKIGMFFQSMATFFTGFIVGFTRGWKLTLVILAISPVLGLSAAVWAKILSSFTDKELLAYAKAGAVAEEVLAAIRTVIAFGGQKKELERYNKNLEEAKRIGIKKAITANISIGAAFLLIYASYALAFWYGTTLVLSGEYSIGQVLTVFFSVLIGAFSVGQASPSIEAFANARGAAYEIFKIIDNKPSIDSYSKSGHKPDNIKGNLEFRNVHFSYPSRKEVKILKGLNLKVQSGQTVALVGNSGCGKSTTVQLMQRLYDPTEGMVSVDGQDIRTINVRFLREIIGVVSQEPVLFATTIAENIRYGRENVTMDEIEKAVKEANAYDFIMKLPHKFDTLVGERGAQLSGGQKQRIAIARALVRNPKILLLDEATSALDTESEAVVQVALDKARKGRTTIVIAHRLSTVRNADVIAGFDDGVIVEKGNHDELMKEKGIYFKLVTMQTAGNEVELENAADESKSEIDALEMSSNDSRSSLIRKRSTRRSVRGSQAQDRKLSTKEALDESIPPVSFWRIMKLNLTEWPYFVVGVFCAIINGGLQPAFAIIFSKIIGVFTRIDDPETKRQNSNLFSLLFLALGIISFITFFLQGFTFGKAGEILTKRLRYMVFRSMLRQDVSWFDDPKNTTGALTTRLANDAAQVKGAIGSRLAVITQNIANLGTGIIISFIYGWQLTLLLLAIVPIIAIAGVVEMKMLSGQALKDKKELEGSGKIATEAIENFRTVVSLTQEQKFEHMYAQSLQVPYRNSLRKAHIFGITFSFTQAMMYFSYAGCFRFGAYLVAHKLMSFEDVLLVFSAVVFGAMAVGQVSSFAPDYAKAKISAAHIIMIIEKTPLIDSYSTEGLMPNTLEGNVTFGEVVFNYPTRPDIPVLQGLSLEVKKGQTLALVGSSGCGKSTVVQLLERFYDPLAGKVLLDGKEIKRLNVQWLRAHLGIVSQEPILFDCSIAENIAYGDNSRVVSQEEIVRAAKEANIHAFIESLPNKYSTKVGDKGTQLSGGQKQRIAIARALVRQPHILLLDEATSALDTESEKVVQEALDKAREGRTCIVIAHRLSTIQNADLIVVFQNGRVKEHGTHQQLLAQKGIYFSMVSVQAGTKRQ", "assay": "In vitro P-gp inhibition: 3H-digoxin permeation across control and MDR1-expressing LLC-PK1 cell monolayers", "details": "for Control cells Papp ratio / Corrected Papp ratio / MDR1-expressing cells Papp ratio: 3H-digoxin 1 µmol/L", "protocol": "MDR1-expressing cells (porcine kidney epithelial LLC-PK1 cells transfected with human MDR1 cDNA) was used. The MDR1-expressing cells were seeded at a density of 4 × 10^4 cells/insert in plates and were incubated in a CO2 incubator (37 °C, CO2: 5%) for 7 to 9 days to prepare cell monolayers. […] After incubation for 4 h at 37 °C, a 70-μL aliquot of the incubation solutions was collected as the analytical sample from the opposite compartment of that spiked with test solutions (receiver compartment). The collected samples were immediately combined with 10 mL of scintillator, and the radioactivity was counted using the LSC. Permeability coefficient (Papp) of ^3H-digoxin was calculated using the following equation: Pappcm/sec=[dQ/dt]/A/C0 where dQ/dt is the transport rate (dpm/sec); A is the membrane area (cm^2); C0 is the initial concentration (dpm/mL). The ratio of permeability coefficient (Papp ratio) was calculated from the basal to apical Papp and apical to basal Papp according to the following equation: Pappratio=BasaltoapicalPapp/ApicaltobasalPapp\nFurthermore, the ratios of the Papp ratios in MDR1-expressing cells to the Papp ratios in control cells were calculated as corrected Papp ratio according to the following equation: CorrectedPappratio=PappratiooftheMDR1expressingcells/Pappratioofthecontrolcells\nThe % of control was calculated from the corrected Papp ratio according to the following equation: \\% \\,of\\,control=CorrectedPappratio\\,in\\,the\\,absence\\,or\\,presence\\,of\\,inhibitors/CorrectedPappratio\\,in\\,the\\,absence\\,of\\,inhibitors×100"}, "P-gp [2]": {"test_system": "P-gp", "assay": "P-gp mRNA induction in cultured human hepatocytes", "type": "cell-based"}, "CYP2C8": {"test_system": "CYP2C8", "assay": "CYP2C8 mRNA induction in cultured human hepatocytes", "quoted_text": "as §1, §2"}, "CYP2C9": {"test_system": "CYP2C9", "assay": "CYP2C9 mRNA induction in cultured human hepatocytes", "quoted_text": "as §1, §2"}, "P-gp [3]": {"test_system": "P-gp", "details": "cited from earlier work"}, "CYP3A": {"test_system": "CYP3A", "details": "multiple oral 600 mg rifampicin; cited from earlier work"}, "CYP3A4 [4]": {"test_system": "CYP3A4", "details": "cited from earlier work"}, "[5]": {"details": "100 µmol/L (enzalutamide, M2: two lots of hepatocyte)"}, "[6]": {"details": "multiple 160 mg doses of enzalutamide, mean (SD)"}, "[7]": {"details": "multiple oral 160 mg enzalutamide"}, "[8]": {"details": "with/without enzalutamide 160 mg multiple doses, geometric mean ratio (90% CI)"}}, "note": "Like-named read-outs stand apart in the source and are kept apart here."}
{"compound": "CC1(C)C(=O)N(c2ccc(C#N)c(C(F)(F)F)c2)C(=S)N1c1ccc(C(=O)O)c(F)c1", "note": "[M1]", "values": [{"measurement": "Fold increase CYP1A2 mRNA", "setting": "CYP1A2; 1 µmol/L", "value": "0.697 ± 0.260", "unit": "fold"}, {"measurement": "Fold increase CYP1A2 mRNA", "setting": "CYP1A2; 10 µmol/L", "value": "0.883 ± 0.303", "unit": "fold"}, {"measurement": "Fold increase CYP1A2 mRNA", "setting": "CYP1A2; [5]", "value": "1.01 ± 0.59", "unit": "fold"}, {"measurement": "Fold increase CYP3A4 mRNA", "setting": "CYP3A4 [1]; 1 µmol/L", "value": "0.832 ± 0.417", "unit": "fold"}, {"measurement": "Fold increase CYP3A4 mRNA", "setting": "CYP3A4 [1]; 10 µmol/L", "value": "1.17 ± 0.46", "unit": "fold"}, {"measurement": "Fold increase CYP3A4 mRNA", "setting": "CYP3A4 [1]; hepatocytes", "value": "1.83 ± 0.98", "unit": "fold"}, {"measurement": "Fold increase CYP2B6 mRNA", "setting": "CYP2B6; 1 µmol/L", "value": "0.724 ± 0.316", "unit": "fold"}, {"measurement": "Fold increase CYP2B6 mRNA", "setting": "CYP2B6; 10 µmol/L", "value": "1.03 ± 0.43", "unit": "fold"}, {"measurement": "Fold increase CYP2B6 mRNA", "setting": "CYP2B6; [5]", "value": "0.848 ± 0.337", "unit": "fold"}, {"measurement": "Fold increase CYP2C19 mRNA", "setting": "CYP2C19; 1 µmol/L", "value": "0.855 ± 0.246", "unit": "fold"}, {"measurement": "Fold increase CYP2C19 mRNA", "setting": "CYP2C19; 10 µmol/L", "value": "1.06 ± 0.10", "unit": "fold"}, {"measurement": "Fold increase CYP2C19 mRNA", "setting": "CYP2C19; [5]", "value": "1.55 ± 0.80", "unit": "fold"}, {"measurement": "Control cells Papp ratio", "setting": "P-gp (human MDR1); additive 0.3 µmol/L", "value": 1.3}, {"measurement": "Corrected Papp ratio", "setting": "P-gp (human MDR1); additive 0.3 µmol/L", "value": 13.2}, {"measurement": "MDR1-expressing cells Papp ratio", "setting": "P-gp (human MDR1); additive 0.3 µmol/L", "value": 17.1}, {"measurement": "Control cells Papp ratio", "setting": "P-gp (human MDR1); additive 1 µmol/L", "value": 1.2}, {"measurement": "Corrected Papp ratio", "setting": "P-gp (human MDR1); additive 1 µmol/L", "value": 17.4}, {"measurement": "MDR1-expressing cells Papp ratio", "setting": "P-gp (human MDR1); additive 1 µmol/L", "value": 20.9}, {"measurement": "Control cells Papp ratio", "setting": "P-gp (human MDR1); additive 3 µmol/L", "value": 1.0}, {"measurement": "Corrected Papp ratio", "setting": "P-gp (human MDR1); additive 3 µmol/L", "value": 19.2}, {"measurement": "MDR1-expressing cells Papp ratio", "setting": "P-gp (human MDR1); additive 3 µmol/L", "value": 19.2}, {"measurement": "Control cells Papp ratio", "setting": "P-gp (human MDR1); additive 10 µmol/L", "value": 1.0}, {"measurement": "Corrected Papp ratio", "setting": "P-gp (human MDR1); additive 10 µmol/L", "value": 21.7}, {"measurement": "MDR1-expressing cells Papp ratio", "setting": "P-gp (human MDR1); additive 10 µmol/L", "value": 21.7}, {"measurement": "Control cells Papp ratio", "setting": "P-gp (human MDR1); additive 30 µmol/L", "value": 1.0}, {"measurement": "Corrected Papp ratio", "setting": "P-gp (human MDR1); additive 30 µmol/L", "value": 18.3}, {"measurement": "MDR1-expressing cells Papp ratio", "setting": "P-gp (human MDR1); additive 30 µmol/L", "value": 18.3}, {"measurement": "Control cells Papp ratio", "setting": "P-gp (human MDR1); additive 80 µmol/L", "value": 1.0}, {"measurement": "Corrected Papp ratio", "setting": "P-gp (human MDR1); additive 80 µmol/L", "value": 21.3}, {"measurement": "MDR1-expressing cells Papp ratio", "setting": "P-gp (human MDR1); additive 80 µmol/L", "value": 21.3}, {"measurement": "Inhibition of P-gp-mediated 3H-digoxin transport", "setting": "P-gp (human MDR1); result in words", "value": "did not inhibit"}, {"measurement": "Fold increase P-gp mRNA", "setting": "P-gp [2]; 1 µmol/L", "value": "0.885 ± 0.553", "unit": "fold"}, {"measurement": "Fold increase P-gp mRNA", "setting": "P-gp [2]; 10 µmol/L", "value": "1.46 ± 0.79", "unit": "fold"}, {"measurement": "Fold increase P-gp mRNA", "setting": "P-gp [2]; [5]", "value": "1.32 ± 0.25", "unit": "fold"}, {"measurement": "Fold increase CYP2C8 mRNA", "setting": "CYP2C8; 1 µmol/L", "value": "1.11 ± 0.53", "unit": "fold"}, {"measurement": "Fold increase CYP2C8 mRNA", "setting": "CYP2C8; 10 µmol/L", "value": "1.44 ± 0.50", "unit": "fold"}, {"measurement": "Fold increase CYP2C8 mRNA", "setting": "CYP2C8; [5]", "value": "2.35 ± 1.66", "unit": "fold"}, {"measurement": "Fold increase CYP2C9 mRNA", "setting": "CYP2C9; 1 µmol/L", "value": "0.853 ± 0.361", "unit": "fold"}, {"measurement": "Fold increase CYP2C9 mRNA", "setting": "CYP2C9; 10 µmol/L", "value": "0.888 ± 0.172", "unit": "fold"}, {"measurement": "Fold increase CYP2C9 mRNA", "setting": "CYP2C9; [5]", "value": "1.52 ± 0.63", "unit": "fold"}]}
{"compound": "C[C@H]1O[C@@H](O[C@H]2[C@@H](O)C[C@H](O[C@H]3[C@@H](O)C[C@H](O[C@H]4CC[C@@]5(C)[C@H](CC[C@@H]6[C@@H]5C[C@@H](O)[C@]5(C)[C@@H](C7=CC(=O)OC7)CC[C@]65O)C4)O[C@@H]3C)O[C@@H]2C)C[C@H](O)[C@@H]1O", "note": "[Digoxin, digoxin]", "values": [{"measurement": "AUC ratio, observed", "setting": "P-gp [3]; geometric mean ratio (90% CI)", "value": "1.29 (1.21–1.38)"}, {"measurement": "Cmax ratio, observed", "setting": "P-gp [3]; geometric mean ratio (90% CI)", "value": "1.17 (1.06–1.29)"}, {"measurement": "AUC without enzalutamide, observed", "setting": "P-gp [3]; mean (SD)", "value": "22.1 (4.10) ng·h/mL"}, {"measurement": "Cmax without enzalutamide, observed", "setting": "P-gp [3]; mean (SD)", "value": "1.45 (0.314) ng/mL"}, {"measurement": "AUC with enzalutamide, observed", "setting": "P-gp [3]; [6]", "value": "28.7 (5.79) ng·h/mL"}, {"measurement": "Cmax with enzalutamide, observed", "setting": "P-gp [3]; [6]", "value": "1.69 (0.384) ng/mL"}, {"measurement": "Increase in digoxin AUC by enzalutamide", "setting": "P-gp [3]; [7]", "value": 29, "unit": "%"}, {"measurement": "Increase in digoxin Cmax by enzalutamide", "setting": "P-gp [3]; [7]", "value": 17, "unit": "%"}]}
{"compound": "Cc1ncc2n1-c1ccc(Cl)cc1C(c1ccccc1F)=NC2", "note": "[Midazolam, midazolam]", "values": [{"measurement": "Decrease in midazolam AUC by rifampicin", "setting": "CYP3A", "value": "more than 90%"}, {"measurement": "Midazolam AUC ratio with rifampicin", "setting": "CYP3A", "value": "less than 0.1"}, {"measurement": "AUC without enzalutamide, observed", "setting": "CYP3A4 [4]; mean (SD)", "value": "32.0 (12.8) ng·h/mL"}, {"measurement": "Cmax without enzalutamide, observed", "setting": "CYP3A4 [4]; mean (SD)", "value": "9.98 (3.17) ng/mL"}, {"measurement": "AUC with enzalutamide, observed", "setting": "CYP3A4 [4]; [6]", "value": "4.22 (0.784) ng·h/mL"}, {"measurement": "Cmax with enzalutamide, observed", "setting": "CYP3A4 [4]; [6]", "value": "2.29 (0.868) ng/mL"}, {"measurement": "AUC ratio, observed", "setting": "CYP3A4 [4]; [8]", "value": "0.14 (0.12–0.17)"}, {"measurement": "Cmax ratio, observed", "setting": "CYP3A4 [4]; [8]", "value": "0.23 (0.20–0.27)"}]}
{"compound": "CCC1(c2ccccc2)C(=O)NC(=O)NC1=O", "note": "[Phenobarbital, phenobarbital, reference compound]", "values": [{"measurement": "Fold increase CYP2B6 mRNA", "setting": "CYP2B6; 750 µmol/L", "value": "6.90 ± 3.66", "unit": "fold"}, {"measurement": "Fold increase P-gp mRNA", "setting": "P-gp [2]; 750 µmol/L", "value": "2.61 ± 0.59", "unit": "fold"}]}
